In US11214594B2, “Antimicrobial peptide having synergistic antibacterial effect with antibiotics on multidrug resistant bacteria, and use thereof” (priority 2016, dated 2022):
Values after ≈ are worked out from the molar mass of the structure shown. Where a SMILES comes first, the peptide text is derived from it. [ ]: non-standard residue; d: D form.

How the values were obtained:
MDRST 8009 = format: cell-based, Salmonella typhimurium; settings: agent alone
Procedure, shortened: (§1)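 Peptides were serially diluted twofold in Mueller-Hinton medium and combined 1:1 with bacterial suspensions prepared at 2×10^6 CFU. Readout was the minimal inhibitory concentration, i.e. the lowest concentration with no growth.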

E. coli [1] = experiment: MIC of antibiotic during combined treatment with antimicrobial peptide; format: cell-based, Escherichia coli; settings: for Synergistic effect of antibacterial activity with existing antibiotics compared with PapMA-1: E. coli and MDREC1229; for Antibiotic MIC, Erythromycin / Antibiotic MIC, Linezolid / Antibiotic MIC, Vancomycin: E. coli
Procedure, shortened: (§2)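 MIC values for mixed peptide plus antibiotic solutions were measured in MH medium.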

E. coli [2] = experiment: microbe, parasite or virus in culture; format: cell-based, Escherichia coli; settings: 16 h
Procedure, shortened: as §1

MDREC 1229 = experiment: microbe, parasite or virus in culture; format: cell-based, Escherichia coli
Procedure, shortened: as §1

A. baumannii = experiment: MIC of antibiotic during combined treatment with antimicrobial peptide; format: cell-based, Acinetobacter baumannii; settings: for Synergistic effect of antibacterial activity with existing antibiotics compared with PapMA-1: A. baumannii and MDRAB 12035; for Antibiotic MIC, Erythromycin / Antibiotic MIC, Linezolid / Antibiotic MIC, Vancomycin: A. baumannii
Procedure, shortened: as §2

[3] = erythromycin combined with peptide at 1 μg/ml
[4] = erythromycin combined with peptide at 2 μg/ml
[5] = erythromycin combined with peptide at 4 μg/ml
[6] = erythromycin combined with peptide at 6 μg/ml
[7] = erythromycin combined with peptide at 8 μg/ml
[8] = erythromycin combined with peptide at 16 μg/ml
[9] = erythromycin combined with peptide at 32 μg/ml
[10] = erythromycin combined with peptide at 64 μg/ml
[11] = linezolid combined with peptide at 1 μg/ml
[12] = linezolid combined with peptide at 2 μg/ml
[13] = linezolid combined with peptide at 4 μg/ml
[14] = linezolid combined with peptide at 6 μg/ml
[15] = linezolid combined with peptide at 8 μg/ml
[16] = linezolid combined with peptide at 16 μg/ml
[17] = linezolid combined with peptide at 32 μg/ml
[18] = linezolid combined with peptide at 64 μg/ml
[19] = vancomycin combined with peptide at 1 μg/ml
[20] = vancomycin combined with peptide at 2 μg/ml
[21] = vancomycin combined with peptide at 4 μg/ml
[22] = vancomycin combined with peptide at 6 μg/ml
[23] = vancomycin combined with peptide at 8 μg/ml
[24] = vancomycin combined with peptide at 16 μg/ml
[25] = vancomycin combined with peptide at 32 μg/ml
[26] = vancomycin combined with peptide at 64 μg/ml
[27] = combined with peptide at 1 μg/ml
[28] = combined with peptide at 2 μg/ml
[29] = combined with peptide at 4 μg/ml
[30] = combined with peptide at 6 μg/ml
[31] = combined with peptide at 8 μg/ml
[32] = combined with peptide at 16 μg/ml
[33] = combined with peptide at 32 μg/ml
[34] = combined with peptide at 64 μg/ml

Which results are given for `CC[C@H](C)[C@H](NC(=O)[C@H](CCCCN)NC(=O)[C@H](Cc1c[nH]c2ccccc12)NC(=O)[C@@H](N)CCCNC(=N)N)C(=O)N[C@@H](Cc1ccccc1)C(=O)N[C@@H](CCCCN)C(=O)N[C@@H](CCCCN)C(=O)N[C@H](C(=O)N[C@H](CCCCN)C(=O)N[C@@H](CCCCN)C(=O)N[C@@H](CC(C)C)C(=O)N[C@@H](CC(C)C)C(=O)N[C@@H](Cc1c[nH]cn1)C(=O)N[C@@H](CO)C(=O)N[C@@H](C)C(=O)N[C@@H](CCCCN)C(=O)N[C@@H](CCCCN)C(=O)N[C@@H](Cc1c[nH]c2ccccc12)C(N)=O)[C@@H](C)CC` [PapMA-16, RWK IFK KIk KLL HSA KKW-NH2] (H-RWKIFKKI[dK]KLLHSAKKW-NH2; N-terminus assumed)?
Minimal inhibitory concentration MIC (MDRST 8009): 64 µg/mL (≈ 27.4 µM); Synergistic effect of antibacterial activity with existing antibiotics compared with PapMA-1 (E. coli [1]): higher level than the PapMA-1 peptide; Antibiotic MIC, Erythromycin (E. coli [1]; [3]): 128 µg/mL; Antibiotic MIC, Erythromycin (E. coli [1]; [4]): 32 µg/mL; Antibiotic MIC, Erythromycin (E. coli [1]; [5]): 16 µg/mL; Antibiotic MIC, Erythromycin (E. coli [1]; [6]): 2 µg/mL; Antibiotic MIC, Erythromycin (E. coli [1]; [7]): 2 µg/mL; Antibiotic MIC, Erythromycin (E. coli [1]; [8]): 0.25 µg/mL; Antibiotic MIC, Erythromycin (E. coli [1]; [9]): 0.125 µg/mL; Antibiotic MIC, Erythromycin (E. coli [1]; [10]): 0 µg/mL; Antibiotic MIC, Linezolid (E. coli [1]; [11]): >128 µg/mL; Antibiotic MIC, Linezolid (E. coli [1]; [12]): >128 µg/mL; Antibiotic MIC, Linezolid (E. coli [1]; [13]): 32 µg/mL; Antibiotic MIC, Linezolid (E. coli [1]; [14]): 16 µg/mL; Antibiotic MIC, Linezolid (E. coli [1]; [15]): 16 µg/mL; Antibiotic MIC, Linezolid (E. coli [1]; [16]): 8 µg/mL; Antibiotic MIC, Linezolid (E. coli [1]; [17]): 4 µg/mL; Antibiotic MIC, Linezolid (E. coli [1]; [18]): 0 µg/mL; Antibiotic MIC, Vancomycin (E. coli [1]; [19]): >128 µg/mL; Antibiotic MIC, Vancomycin (E. coli [1]; [20]): >128 µg/mL; Antibiotic MIC, Vancomycin (E. coli [1]; [21]): >128 µg/mL; Antibiotic MIC, Vancomycin (E. coli [1]; [22]): 32 µg/mL; Antibiotic MIC, Vancomycin (E. coli [1]; [23]): 16 µg/mL; Antibiotic MIC, Vancomycin (E. coli [1]; [24]): 8 µg/mL; Antibiotic MIC, Vancomycin (E. coli [1]; [25]): 4 µg/mL; Antibiotic MIC, Vancomycin (E. coli [1]; [26]): 0 µg/mL; Minimal inhibitory concentration MIC (E. coli [2]): 64 µg/mL (≈ 27.4 µM); Minimal inhibitory concentration MIC (MDREC 1229): 64 µg/mL (≈ 27.4 µM); Peptide MIC, peptide alone (MDREC 1229): 64 µg/mL; Synergistic effect of antibacterial activity with existing antibiotics compared with PapMA-1 (A. baumannii): level similar to that of PapMA-1 peptide; Antibiotic MIC, Erythromycin (A. baumannii; [27]): 32 µg/mL; Antibiotic MIC, Linezolid (A. baumannii; [27]): >128 µg/mL; Antibiotic MIC, Vancomycin (A. baumannii; [27]): >128 µg/mL; Antibiotic MIC, Erythromycin (A. baumannii; [28]): 16 µg/mL; Antibiotic MIC, Linezolid (A. baumannii; [28]): >128 µg/mL; Antibiotic MIC, Vancomycin (A. baumannii; [28]): 128 µg/mL; Antibiotic MIC, Erythromycin (A. baumannii; [29]): 8 µg/mL; Antibiotic MIC, Linezolid (A. baumannii; [29]): 128 µg/mL; Antibiotic MIC, Vancomycin (A. baumannii; [29]): 64 µg/mL; Antibiotic MIC, Erythromycin (A. baumannii; [30]): 1 µg/mL; Antibiotic MIC, Linezolid (A. baumannii; [30]): 32 µg/mL; Antibiotic MIC, Vancomycin (A. baumannii; [30]): 32 µg/mL; Antibiotic MIC, Erythromycin (A. baumannii; [31]): 0.5 µg/mL; Antibiotic MIC, Linezolid (A. baumannii; [31]): 16 µg/mL; Antibiotic MIC, Vancomycin (A. baumannii; [31]): 16 µg/mL; Antibiotic MIC, Erythromycin (A. baumannii; [32]): 0.25 µg/mL; Antibiotic MIC, Linezolid (A. baumannii; [32]): 8 µg/mL; Antibiotic MIC, Vancomycin (A. baumannii; [32]): 8 µg/mL; Antibiotic MIC, Erythromycin (A. baumannii; [33]): 0 µg/mL; Antibiotic MIC, Linezolid (A. baumannii; [33]): 0 µg/mL; Antibiotic MIC, Vancomycin (A. baumannii; [33]): 0 µg/mL; Antibiotic MIC, Erythromycin (A. baumannii; [34]): 0 µg/mL; Antibiotic MIC, Linezolid (A. baumannii; [34]): 0 µg/mL; Antibiotic MIC, Vancomycin (A. baumannii; [34]): 0 µg/mL

What does the source list for `CC[C@H](C)[C@H](NC(=O)[C@H](CCCCN)NC(=O)[C@H](Cc1c[nH]c2ccccc12)NC(=O)[C@@H](N)CCCNC(=N)N)C(=O)N[C@@H](Cc1ccccc1)C(=O)N[C@@H](CCCCN)C(=O)N[C@@H](CCCCN)C(=O)N[C@H](C(=O)N1CCC[C@H]1C(=O)N[C@@H](CCCCN)C(=O)N[C@@H](Cc1ccccc1)C(=O)N[C@@H](CC(C)C)C(=O)N[C@@H](Cc1c[nH]cn1)C(=O)N[C@@H](CO)C(=O)N[C@@H](CC(C)C)C(=O)N[C@@H](CCCCN)C(=O)N[C@@H](CCCCN)C(=O)N[C@@H](Cc1ccccc1)C(N)=O)[C@@H](C)CC` [PapMA-6, RWK IFK KIP KFL HSL KKF-NH2] (H-RWKIFKKIPKFLHSLKKF-NH2; N-terminus assumed)?
Minimal inhibitory concentration MIC (MDRST 8009): 64 µg/mL (≈ 27.3 µM); Synergistic effect of antibacterial activity with existing antibiotics compared with PapMA-1 (E. coli [1]): higher level than the PapMA-1 peptide; Antibiotic MIC, Erythromycin (E. coli [1]; [3]): 64 µg/mL; Antibiotic MIC, Erythromycin (E. coli [1]; [4]): 64 µg/mL; Antibiotic MIC, Erythromycin (E. coli [1]; [5]): 8 µg/mL; Antibiotic MIC, Erythromycin (E. coli [1]; [6]): 4 µg/mL; Antibiotic MIC, Erythromycin (E. coli [1]; [7]): 0.5 µg/mL; Antibiotic MIC, Erythromycin (E. coli [1]; [8]): 0.25 µg/mL; Antibiotic MIC, Erythromycin (E. coli [1]; [9]): 0.125 µg/mL; Antibiotic MIC, Erythromycin (E. coli [1]; [10]): 0 µg/mL; Antibiotic MIC, Linezolid (E. coli [1]; [11]): >128 µg/mL; Antibiotic MIC, Linezolid (E. coli [1]; [12]): >128 µg/mL; Antibiotic MIC, Linezolid (E. coli [1]; [13]): 32 µg/mL; Antibiotic MIC, Linezolid (E. coli [1]; [14]): 8 µg/mL; Antibiotic MIC, Linezolid (E. coli [1]; [15]): 8 µg/mL; Antibiotic MIC, Linezolid (E. coli [1]; [16]): 2 µg/mL; Antibiotic MIC, Linezolid (E. coli [1]; [17]): 2 µg/mL; Antibiotic MIC, Linezolid (E. coli [1]; [18]): 0 µg/mL; Antibiotic MIC, Vancomycin (E. coli [1]; [19]): >128 µg/mL; Antibiotic MIC, Vancomycin (E. coli [1]; [20]): >128 µg/mL; Antibiotic MIC, Vancomycin (E. coli [1]; [21]): 32 µg/mL; Antibiotic MIC, Vancomycin (E. coli [1]; [22]): 16 µg/mL; Antibiotic MIC, Vancomycin (E. coli [1]; [23]): 8 µg/mL; Antibiotic MIC, Vancomycin (E. coli [1]; [24]): 2 µg/mL; Antibiotic MIC, Vancomycin (E. coli [1]; [25]): 1 µg/mL; Antibiotic MIC, Vancomycin (E. coli [1]; [26]): 0 µg/mL; Minimal inhibitory concentration MIC (E. coli [2]): 64 µg/mL (≈ 27.3 µM); Minimal inhibitory concentration MIC (MDREC 1229): 64 µg/mL (≈ 27.3 µM); Synergistic effect of antibacterial activity with existing antibiotics compared with PapMA-1 (A. baumannii): higher level than the PapMA-1 peptide; Antibiotic MIC, Erythromycin (A. baumannii; [27]): 16 µg/mL; Antibiotic MIC, Linezolid (A. baumannii; [27]): 128 µg/mL; Antibiotic MIC, Vancomycin (A. baumannii; [27]): >128 µg/mL; Antibiotic MIC, Erythromycin (A. baumannii; [28]): 8 µg/mL; Antibiotic MIC, Linezolid (A. baumannii; [28]): 64 µg/mL; Antibiotic MIC, Vancomycin (A. baumannii; [28]): 128 µg/mL; Antibiotic MIC, Erythromycin (A. baumannii; [29]): 4 µg/mL; Antibiotic MIC, Linezolid (A. baumannii; [29]): 8 µg/mL; Antibiotic MIC, Vancomycin (A. baumannii; [29]): 16 µg/mL; Antibiotic MIC, Erythromycin (A. baumannii; [30]): 2 µg/mL; Antibiotic MIC, Linezolid (A. baumannii; [30]): 4 µg/mL; Antibiotic MIC, Vancomycin (A. baumannii; [30]): 8 µg/mL; Antibiotic MIC, Erythromycin (A. baumannii; [31]): 0.125 µg/mL; Antibiotic MIC, Linezolid (A. baumannii; [31]): 2 µg/mL; Antibiotic MIC, Vancomycin (A. baumannii; [31]): 4 µg/mL; Antibiotic MIC, Erythromycin (A. baumannii; [32]): 0.0625 µg/mL; Antibiotic MIC, Linezolid (A. baumannii; [32]): 0.5 µg/mL; Antibiotic MIC, Vancomycin (A. baumannii; [32]): 2 µg/mL; Antibiotic MIC, Erythromycin (A. baumannii; [33]): 0 µg/mL; Antibiotic MIC, Linezolid (A. baumannii; [33]): 0 µg/mL; Antibiotic MIC, Vancomycin (A. baumannii; [33]): 0 µg/mL; Antibiotic MIC, Erythromycin (A. baumannii; [34]): 0 µg/mL; Antibiotic MIC, Linezolid (A. baumannii; [34]): 0 µg/mL; Antibiotic MIC, Vancomycin (A. baumannii; [34]): 0 µg/mL
